Laboratory results as given in ChEMBL document CHEMBL1201862, “PubChem BioAssay data set” (2004).
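The compound was tested at five concentrations on cells cultured in 96-well plates, with a 48-hour exposure period. GI50 = concentration required for 50% inhibition of growth.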 Active and inactive are the calls of the source. No stated cut-off is given here; in the data, active = GI50 up to about 1.1 µM and inactive = higher.

What was measured:
Experiment in all cases: DTP human tumour cell line panel, 48 h
[1] = tested on: RXF 393
[2] = tested on: MDA-N
[3] = tested on: HCC 2998
[4] = tested on: SNB-75
[5] = tested on: SF-295
[6] = tested on: A498
[7] = tested on: SK-MEL-28
[8] = tested on: HOP-92
[9] = tested on: A549
[10] = tested on: MOLT-4
[11] = tested on: SK-MEL-2
[12] = tested on: LOX IMVI
[13] = tested on: Malme-3M
[14] = tested on: SF-268
[15] = tested on: T47D
[16] = tested on: U-251
[17] = tested on: HOP-62
[18] = tested on: NCI-H23
[19] = tested on: COLO 205
[20] = tested on: HCT-15
[21] = tested on: MDA-MB-435
[22] = tested on: BT-549
[23] = tested on: ACHN
[24] = tested on: SN12C
[25] = tested on: OVCAR-5
[26] = tested on: 786-0
[27] = tested on: SR
[28] = tested on: NCI-H460
[29] = tested on: TK-10
[30] = tested on: K562
[31] = tested on: NCI/ADR-RES
[32] = tested on: SK-MEL-5
[33] = tested on: MDA-MB-231
[34] = tested on: CAKI-1
[35] = tested on: DU-145
[36] = tested on: HCT-116
[37] = tested on: HT-29
[38] = tested on: NCI-H226
[39] = tested on: KM12
[40] = tested on: UACC-257
[41] = tested on: HL-60
[42] = tested on: CCRF-CEM
[43] = tested on: SW-620
[44] = tested on: SF-539
[45] = tested on: OVCAR-3
[46] = tested on: Hs-578T
[47] = tested on: PC-3
[48] = tested on: RPMI-8226
[49] = tested on: MCF7
[50] = tested on: UO-31
[51] = tested on: OVCAR-4
[52] = tested on: NCI-H522
[53] = tested on: EKVX
[54] = tested on: IGROV-1
[55] = tested on: OVCAR-8

Measured: GI50

CS(=O)(=O)OCC1CN(S(C)(=O)=O)c2cc(O)ccc21 (stereo not given)
3100 nM: [20]
active: [14] 524 nM | [15] 498 nM | [42] 1010 nM | [52] 1110 nM
inactive: [1] 1190 nM | [2] 1910 nM | [3] 1890 nM | [4] 2370 nM | [5] 3420 nM | [6] 2640 nM | [7] 3470 nM | [8] 3090 nM | [9] 3430 nM | [10] 1220 nM | [11] 2590 nM | [12] 3170 nM | [13] 2020 nM | [16] 2360 nM | [17] 2470 nM | [18] 1720 nM | [19] 2300 nM | [21] 2020 nM | [22] 2190 nM | [23] 3180 nM | [24] 2920 nM | [25] 2840 nM | [26] 3670 nM | [27] 2050 nM | [28] 2960 nM | [29] 2370 nM | [30] 2430 nM | [31] 3090 nM | [32] 1690 nM | [33] 2300 nM | [34] 3420 nM | [35] 2800 nM | [36] 2770 nM | [37] 2810 nM | [38] 3330 nM | [39] 2960 nM | [40] 2680 nM | [41] 1870 nM | [43] 2840 nM | [44] 2420 nM | [45] 2820 nM | [46] 3520 nM | [47] 2090 nM | [48] 1870 nM | [49] 1530 nM | [50] 3260 nM | [51] 2670 nM | [53] 4370 nM | [54] 3850 nM | [55] 2670 nM
